{"source": "patent EP4660190A1", "about": "“PHARMACEUTICALLY ACCEPTABLE SALT OF COMPOUND AND PREPARATION METHOD THEREFOR” (Jiangsu Chia Tai Fenghai Pharmaceutical Co., Ltd., priority 2023, dated 2024)", "system": "MPTP-induced Parkinson's disease model mice", "assay": "MPTP-induced mouse Parkinson's disease model, TH-positive fiber content in the striatum", "type": "in vivo, C57 mice", "details": "four weeks, mean ± SD", "data": [{"substance": "(Z)-3-(1-hydroxybutenyl)benzofuran-2-one tromethamine salt [Example 10]", "values": [{"measurement": "TH-Positive Fiber Content", "setting": "high dose 20 mg/kg daily, listed as Tromethamine salt from Example 10, 20 mg/kg", "value": "709627.56±100462.19^&#"}, {"measurement": "TH-Positive Fiber Content", "setting": "high dose 20 mg/kg daily, listed as tromethamine salt from Example 10, 20 mg/kg", "value": "709,627.56±100,462.19"}, {"measurement": "TH-Positive Fiber Content", "setting": "low dose 5 mg/kg daily, listed as Tromethamine salt from Example 10, 5 mg/kg", "value": "526554.39±169680.75^&"}, {"measurement": "TH-Positive Fiber Content", "setting": "low dose 5 mg/kg daily, listed as tromethamine salt from Example 10, 5 mg/kg", "value": "526,554.39±169,680.75"}]}]}
